Data as given in article PMC12138661, “Anti-Trypanosoma cruzi Effect of Fatty Acids from Porcelia macrocarpa Is Related to Interactions of Cell Membranes at Different Microdomains as Assessed Using Langmuir Monolayers” (ACS Omega, 2025).
≈ marks a conversion by molar mass, not a printed value.

Experiments:
[1] = test system: mammalian cells; parameters: method as in number not given; conditions: literature data; ref number not given; cited from earlier work
[2] = test system: T. cruzi epimastigotes; parameters: method as in number not given; conditions: literature data; ref number not given; cited from earlier work
[3] = test system: trypomastigote forms of T. cruzi; parameters: method as in number not given; conditions: previous studies; ref number not given; cited from earlier work
[4] = test system: T. cruzi; parameters: method as in number not given; conditions: literature data; ref number not given; cited from earlier work
[5] = test system: amastigote forms of L. (L.) infantum; parameters: method as in number not given; conditions: previous studies; ref number not given; cited from earlier work
[6] = test system: trypomastigote forms of T. cruzi (strain Y); assay: In vitro EC50 against trypomastigote forms of T. cruzi (resazurin viability); assay type: cell-based; conditions: Trypanosoma cruzi; trypomastigotes, 24 h; read-out: T. cruzi EC50 TRYPO
Method: Trypomastigote forms (strain Y) of T. cruzi were obtained from Swiss mice (Mus musculus) previously infected intraperitoneally. The trypomastigote forms were used to infect LLC-MK2 cell cultures consisting of Macaca mulatta kidney epithelial cells (ATCC CCL 7) grown in RPMI-1640 medium containing 2% fetal bovine serum (FBS). The infected cell cultures were maintained in an incubator at 37 °C with 5% CO2, as previously described. , To evaluate the 50% effective concentration (EC50) against the trypomastigote forms of T. cruzi, mixture 1–10 was serially solubilized in the RPMI-1640 culture medium in 96-well plates. Subsequently, the trypomastigote forms of T. cruzi were added, at a concentration of 1 × 10^6 trypomastigotes per well. After an incubation period of 24 h at 37 °C with 5% CO2, to determine the viability of trypomastigotes, 20 μL of 10% Alamar Blue (resazurin) was added, followed by a new incubation of the plates for 20 h under the same conditions. At the end of the tests, the plates were read by absorption using a microplate spectrophotometer (Filter Max F5 Multi-Mode Microplate Reader) at 570 nm, as previously described. Benznidazole was used as a positive control, while cells not subjected to treatment were used as a negative control.

[7] = test system: amastigote forms of T. cruzi; assay: In vitro EC50 against intracellular amastigote forms of T. cruzi in peritoneal macrophages (Giemsa, infection index); assay type: cell-based; conditions: Trypanosoma cruzi, Peritoneal macrophage; intracellular amastigotes, 48 h; read-out: T. cruzi EC50 AMA
Method: After collecting and counting the cells, they were seeded in Nunc brand 16-well plates and incubated for 18 h at 37 °C in an incubator containing 5% CO2. Nonadherent cells were then removed by washing with RPMI-1640 medium. Subsequently, the cells were infected with trypomastigotes at a ratio of 10:1 per well during an incubation period of 4 h. The mixture of compounds, previously diluted in series, was added and incubated for 48 h to determine the EC50 against amastigotes. After the incubation phase, the glass slides were fixed using MeOH for 5 min and then stained with Giemsa for 7 min. This procedure allowed for observation under a light microscope. The infection index was obtained in 200 macrophages/slide according to the formula: infected macrophages × number of amastigotes/total number of macrophages. Benznidazole was used as a standard drug. ,

[8] = Cytotoxicity against mammalian cells (MTT); assay type: cell-based; conditions: mouse, NCTC clone 929 fibroblasts, NCTC clone 929 murine fibroblasts
Method: The cytotoxicity of the mixture of 1–10 was examined in cells of the NCTC lineage (clone 929) at a density of 6 × 10^4 cells per well. The cells were cultivated in 96-well plates containing different concentrations of the mixture, serially diluted using RPMI 1640 medium supplemented with 10% fetal bovine serum (FBS). Incubation took place over 48 h, in an incubator maintained at 37 °C with 5% CO2. The cell viability of NCTC cells (clone 929) was subsequently evaluated using the MTT colorimetric assay.

## CCCC#CC#CCCCCCCCCCCC(=O)O [macrocarpathic acid, 12,14-octadecadiinoic acid]
[1]
  cytotoxic effect on mammalian cells: cytotoxic effect

## CCCCCCCCC#CCCCCCCCC(=O)O [9-octadecinoic acid]
[2]
  inhibition of growth of T. cruzi epimastigotes: inhibitory capacity
[3]
  activity against trypomastigote forms of T. cruzi: effective results

## CCCCCCCCCCCCCCCCCC(=O)O [stearic acid]
[4]
  activity against T. cruzi: inactivity

## C=CCCCCCCC#CCCCCCCCCCCCC(=O)O [Compound 2, docos-21-en-13-inoic acid]
[5]
  in vitro activity against amastigote forms of L. (L.) infantum: in vitro activity

## O=C(Cn1ccnc1[N+](=O)[O-])NCc1ccccc1 [benznidazole]
[6]
  EC50: 3.9 ± 1.2 µg/mL (≈ 15 µM)
[7]
  EC50: 0.9 ± 0.2 µg/mL (≈ 3.46 µM)
[8]
  CC50 at 48 h: > 200 µg/mL
